Values of other authors, collected in patent US20230002631A1, “WATER-WASHABLE COMPOSITIONS FOR USE IN 3D PRINTING” (BASF SE, priority 2019, published 2023).
Like-named read-outs stand apart in the source and are kept apart here.

Details: for Amount that dissolves in water: room temperature; for Water solubility (g/L at 20° C.): slightly water-soluble reactive diluents (B1b)

For `C=CC(=O)OCCOCCOCC` [2-(2-ethoxyethoxy)ethyl acrylate(EOEOA), 2-(2-ethoxyethoxy)ethyl acrylate], the “Amount that dissolves in water” value is listed as 13.4 g/L.
In the case of `C=CC(=O)OCCOC(=O)NCCCC` [2-[[(butylamino)carbonyl]oxy]ethyl acrylate], the “Water solubility (g/L at 20° C.)” value (20° C.) is listed as 5.0 g/L.
For `C=CN1CCCCCC1=O` [N-Vinyl-caprolactam (NVC), N-Vinyl-caprolactam], the Water solubility (temperature not given) is given as 40 g/L.
For `C=Cn1ccnc1` [N-Vinyl-imidazole (VIM), N-Vinyl-imidazole], the Water solubility (stated in words) is listed as “Fully miscible”.
In the case of `C=CN1CCCC1=O` [N-Vinyl-pyrrolidone (NVP), N-Vinyl-pyrrolidone], the Water solubility (20° C.) is given as 100 g/L at 68° F. (20° C.).
For `C=C(C)C(=O)OCCOCCOCCOCCOC(=O)C(=C)C` [Tetraethylene glycol dimethacrylate], the Water solubility (temperature not given) is listed as 12.6 g/L.
For `C=CC(=O)OCCOCCOCCOC(=O)C=C` [Triethylene glycol diacrylate (TEGDA), Triethylene glycol diacrylate], the Water solubility (temperature not given) is listed as 18 g/L.
For `C=CC(=O)OCC1(CC)COCOC1` [cyclic trimethylolpropane formal acrylate], the “Water solubility (g/L at 20° C.)” value (20° C.) is listed as 9.3 g/L.
For `C=CC(=O)OCCO` [hydroxyethyl acrylate], the Water solubility (25° C.) is listed as 100 g/L.
In the case of `C=C(C)C(=O)OCCO` [hydroxyethyl methacrylate], the “Amount that dissolves in water” value is listed as 11.8 g/L.
For `C=CC(=O)OCCCO` [hydroxypropyl acrylate], the Water solubility (25° C.) is listed as 100 g/L.
In the case of `C=C(C)C(=O)OCCCO` [hydroxypropyl methacrylate], the “Water solubility (g/L at 20° C.)” value (20° C.) is given as less than 10 g/L.
For `C=C(C)C(=O)OCCOCCOCCOC(=O)C(=C)C` [triethylene glycol dimethacrylate], the “Water solubility (g/L at 20° C.)” value (20° C.) is listed as 3.6 g/L.
For `C=CC(=O)OCC(C)OCC(C)OCC(C)OC(=O)C=C` (centres unmarked) [tripropylene glycol diacrylate], the “Water solubility (g/L at 20° C.)” value (20° C.) is listed as 4.0 g/L.
In the case of Poly(ethylene glycol) diacrylate, the Water solubility (temperature not given) is given as 21 g/L.
In the case of Polyethylene glycol (200) diacrylate, the Water solubility (stated in words) is given as “Water soluble”.
For Polyethylene glycol (400) diacrylate, the Water solubility (stated in words) is given as “Water soluble”.
